Data: the NIST ThermoML archive (doi:10.1016/j.fluid.2008.06.014)

Conditions: Liquid, vibrating wire

CCOCC [diethyl ether]
Conditions	mass density [kg/m3]	viscosity [mPa·s]
243.15 K, 100 kPa	768.339	0.412
243.15 K, 4360 kPa	771.759	0.427
243.15 K, 9400 kPa	775.801	0.445
243.15 K, 14450 kPa	779.603	0.463
243.15 K, 19460 kPa	783.16	0.481
253.15 K, 100 kPa	758.413	0.363
253.15 K, 4440 kPa	762.367	0.377
253.15 K, 9400 kPa	766.683	0.392
253.15 K, 14460 kPa	770.762	0.408
253.15 K, 19510 kPa	774.696	0.424
263.15 K, 100 kPa	747.885	0.323
263.15 K, 4390 kPa	752.036	0.335
263.15 K, 9440 kPa	756.778	0.35
263.15 K, 14430 kPa	761.197	0.364
263.15 K, 19430 kPa	765.357	0.378
273.15 K, 100 kPa	736.593	0.288
273.15 K, 4380 kPa	741.075	0.3
273.15 K, 9430 kPa	746.224	0.313
273.15 K, 14470 kPa	750.968	0.326
273.15 K, 19480 kPa	755.407	0.339
283.15 K, 100 kPa	725.632	0.26
283.15 K, 4390 kPa	730.65	0.27
283.15 K, 9420 kPa	735.997	0.283
283.15 K, 14500 kPa	741.302	0.294
283.15 K, 19540 kPa	746.114	0.307
293.15 K, 100 kPa	714.517	0.235
293.15 K, 4380 kPa	719.86	0.245
293.15 K, 9420 kPa	725.825	0.256
293.15 K, 14480 kPa	731.278	0.268
293.15 K, 19490 kPa	736.437	0.28
303.15 K, 220 kPa	702.89	0.214
303.15 K, 4380 kPa	708.706	0.223
303.15 K, 9420 kPa	715.312	0.234
303.15 K, 14500 kPa	721.122	0.245
303.15 K, 19560 kPa	726.788	0.256
313.15 K, 410 kPa	691.21	0.195
313.15 K, 4360 kPa	697.329	0.203
313.15 K, 9430 kPa	704.446	0.214
313.15 K, 14520 kPa	710.954	0.225
313.15 K, 19610 kPa	717.082	0.235
323.15 K, 350 kPa	678.758	0.179
323.15 K, 4380 kPa	685.74	0.187
323.15 K, 9430 kPa	693.587	0.197
323.15 K, 14490 kPa	700.362	0.209
323.15 K, 19510 kPa	707.014	0.217
333.15 K, 410 kPa	666.408	0.163
333.15 K, 4390 kPa	673.959	0.172
333.15 K, 9430 kPa	682.531	0.182
333.15 K, 14470 kPa	690.138	0.192
333.15 K, 19470 kPa	697.082	0.201
343.15 K, 340 kPa	653.148	0.15
343.15 K, 4390 kPa	661.825	0.158
343.15 K, 9420 kPa	671.37	0.167
343.15 K, 14460 kPa	679.704	0.178
343.15 K, 19470 kPa	687.162	0.187
353.15 K, 410 kPa	639.678	0.137
353.15 K, 4380 kPa	649.165	0.146
353.15 K, 9410 kPa	659.723	0.155
353.15 K, 14440 kPa	668.759	0.165
353.15 K, 19400 kPa	676.864	0.174
363.15 K, 510 kPa	625.615	0.126
363.15 K, 4380 kPa	636.228	0.134
363.15 K, 9390 kPa	647.821	0.144
363.15 K, 14400 kPa	657.773	0.153
363.15 K, 19350 kPa	666.459	0.162
373.15 K, 650 kPa	610.791	0.116
373.15 K, 4380 kPa	622.533	0.124
373.15 K, 9380 kPa	635.564	0.134
373.15 K, 14400 kPa	646.594	0.143
373.15 K, 19460 kPa	656.28	0.151
